Counter-ions that a name gives are not always drawn.
Columns and labels:
[1] = Particle size analysis by laser light diffraction; assay type: physicochemical; conditions: Fraunhofer method
Experimental: Laser diffraction measurements were performed with a LS 13 320 laser diffraction particle size analyzer equipped with a Tornado DPS module (Beckman Coulter Inc, Brea, CA, USA). Each API, excipient and the blend of batch P25/29-M were measured five times. Particle sizes were calculated using the Fraunhofer method.

[2] = Stability analysis: storage in constant climate chambers, API content by HPLC; assay type: physicochemical; conditions: in P25/29-M small Donuts
Experimental: Small Donuts of P25/29-M were packed in FDS/Proud packaging material Unit Dose Bags (UDB) using a FDS II Proud 336 device (Baxter International Inc., Deerfield, Il, USA) or brown glass stored in constant climate chambers (KBF P 240 and KBF S 240; Binder GmbH; Tuttlingen, Germany). […] Samples packed in UDB were stored for 7 days or 28 days in each of the previously mentioned conditions. Samples in brown glass were stored for 28 days in the 25° C./60% RH condition. After storage, the API contents of the samples were analyzed via HPLC as described in 2.2.6. Each sampling time comprised three samples.

[3] = assay type: physicochemical
Experimental: DSC analyzes were carried out with a DSC 1 device (Mettler-Toledo, LLC, Columbus, OH, USA) operated with STARe Software V16.10. Each single component of the formulation as well as the powder blend and the extruded filament (both P25/29-M) were analyzed. Three different methods were utilized. Nitrogen was used as a purging gas at a flow rate of 50 mL/min. Every sample was heated to 250° C. (10° C./min) and kept at this temperature for 5 min. CD, LD, mannitol and the powder blend were also heated (10° C./min) to and kept at 185° C. (10 min), then cooled to 25° C. (20° C./min) and kept at this temperature for 5 min and reheated to 185° C. (10° C./min) and kept at this temperature for 10 min. Ultimately, CD and the powder blend were also heated to 182° C. (10° C./min) and kept at this temperature for 30 min.

[4] = Thermogravimetric analysis (TGA), thermal stability; assay type: physicochemical; conditions: for temperature at which mass loss / decomposition starts (thermogram): 40 to 300° C.
Experimental: TGA analyzes were carried out with a Discovery TGA (TA Instruments, Waters, LLC, U.S.A.) and data was collected and analyzed with TA Instruments Trios software and percent mass loss or onset temperature were calculated. Two different methods were utilized. Both APIs were subjected to a temperature ramp of 10° C./min starting at 40° C. and concluding at 300° C. in open aluminum pans. CD was additionally subjected to an isothermal stress test at 180° C. for 30 min.

[5] = 3D printing of tablets by direct powder extrusion (DPE): printability and API tolerance; conditions: printing temperature 180° C.
From the text: The previously blended powders were 3D printed using a M3DIMAKER™ equipped with a DPE printhead coupled with a 0.4 mm nozzle (FabRx Ltd., London, United Kingdom). Computer-aided design (CAD) models of tablets were designed using Autodesk Tinkercad (Autodesk Inc., Mill Valley, CA, U.S.A.) and processed with Repetier-Host software (Hot-World GmbH & Co. KG, Willich, Germany). To enhance powder flow, the M3DIMAKER™ was modified with a stirring element 4 (see FIG. 1).
Tablets were printed using the following parameters: printing temperature: 180° C.; first layer height: 0.6 mm, layer height: 0.15-0.30 mm (adaptive slicing), infill: 60-100%, travel speed 70 mm/s, first layer speed 5 mm/s, perimeter speed 7.5-15 mm/s, infill speed: 15-20 mm/s with zero (Oblongs) or one (Cylinders and Donuts) top layer, two bottom layers and two shells.

[6] = Extrusion experiments with BZ in place of CD, extrudate analyzed via HPLC; assay type: physicochemical; conditions: extrusion 125-155° C.
Experimental: For LD and BZ analytics a separate HPLC method was developed for the same equipment. The mobile phase was a 95:5 mixture of aforementioned hydrogen phosphate buffer (pH 2.5) and methanol. LD was detected at 280 nm and BZ at 268 nm. Retention times were 3.41 min (BZ) and 4.41 min (LD). The calibration for LD was the same as in the above-named method and BZ was calibrated in the same range as CD.
Following the dissolution experiments and the subsequently adapted thermoanalyses to further investigate the thermolability of CD, extrusion experiments with BZ were conducted. For these experiments, the CD (P25/29-M) was substituted with BZ. The formulation was extruded between 125-155° C. and the extrudate analyzed via HPLC.

[7] = Dissolution of printed tablets, Ph. Eur. 2.9.3, 0.1 M HCl, paddle 100 rpm, HPLC; assay type: physicochemical
Experimental: Dissolution experiments were carried out according to Ph. Eur. 10.6; 2.9.3 (EDQM, Ph. Eur.), with a Premiere 5100 Dissolution System (Distek Inc., North Brunswick Township, NJ, USA). […] The paddle speed was set to 100 rpm. Samples were taken after 5, 10, 15, 20, 30, 45, 60 and 90 min. A sinker was used for analyzes. For all small tablets and the large Oblongs a Distek “Japanese Basket” was used, whereas a custom 3D printed polylactic acid (PLA) sinker (not shown) was used for the large Cylinders and the large Donuts. If applicable, the dissolution profiles were compared using the f2 comparison (Moore and Flanner 1996).
The API content of the powder blend and the dissolution samples were analyzed and evaluated with a Nexera XR HPLC system and LabSolutions software version 6.83 (both Shimadzu Corp., Nakagyo-ku, Kyoto, Japan). The Nexera XR HPLC system consists of two degassing units (DGU-20A5R) and two HPLC-pumps (LC-20ADXR) as well as an autosampler (SIL-20ACXR) a column oven (FCV-34AH) and a communication bus module (CBM-20A). Samples were dissolved and diluted in 0.1 M HCl. Turbid samples were filtered through a 0.22 μm PTFE Filter. Prior to each analytical sequence, the column was equilibrated for 30 min and the autosampler purged for 5 min. HPLC samples were measured in duplicate with an injection volume of 20 μL. […]

OC[C@@H](O)[C@@H](O)[C@H](O)[C@H](O)CO [mannitol, Mannitol]
particle size d50 [1]: 345 μm

N[C@@H](Cc1ccc(O)c(O)c1)C(=O)O [LD, Levodopa]
storage time tolerated ([2]; both conditions (25/60, 40/75) and packagings): at least 28 days | particle size d50 [1]: 51.8 μm | temperature up to which no degradation was found (DSC and TGA) [3]: > 250 °C | temperature at which mass loss / decomposition starts (thermogram) ([4]; ramp 10° C./min): about 275 °C | tolerance of the printing process (in words) [5]: able to tolerate the printing temperature

NC(CO)C(=O)NNCc1ccc(O)c(O)c1O (stereo not shown) [BZ, Benserazide-HCl]
substance lost during extrusion [6]: More than 70%

C[C@@](Cc1ccc(O)c(O)c1)(NN)C(=O)O [CD, Carbidopa]
substance lost during extrusion ([7]; CD, much higher extrusion temperatures (printing 180° C.)): 30-40% | CD recovered from the completely dissolved tablets ([7]; after the printing process): 60-70% | storage stability (in words) ([2]; brown glass, and 25/60, 7 in UDB): moderate stability | particle size d50 [1]: 15.3 μm | time of exposition until decomposition begins (isothermal DSC) ([3]; 182° C. isothermal): 7 to 8 min | loss in mass over the first 10 min (isothermal TGA) ([4]; 180° C. isothermal): more than 20% | mass loss in the thermogram (release of hydrate water) ([4]; between ca. 90-140° C., ramp 10° C./min): about 8% | temperature at which mass loss / decomposition starts (thermogram) ([4]; ramp 10° C./min): about 195 °C | tolerance of the printing process (in words) [5]: degraded partially during the printing process

— patent publication US20260232594A1, “EXCIPIENT COMPOSITION FOR THE PREPARATION OF AMORPHOUS SOLID DISPERSONS/SOLUTIONS” (UNIVERSITÄTSKLINIKUM HAMBURG-EPPENDORF, priority 2023, published 2026)
